The NIST ThermoML archive (doi:10.1021/acs.jced.9b00422)
Numbers after ± are expanded uncertainties.

Assay: wn = mass fraction of the nth substance listed
Conditions: 323 K, 101.3 kPa, Liquid, Pycnometric method

For [Ca+2].[Cl-].[Cl-] [calcium chloride] + O, which mass density (w1 = 0.568) is on record?
Its mass density is 1538.2 ± 6.6 kg/m3.

Which mass density (w1 = 0.2722) does the source give for [Cl-].[Na+] [sodium chloride] + O here?
Its mass density is 1175 ± 2.4 kg/m3.

For [Cl-].[Cl-].[Zn+2] [zinc chloride] + O, which mass density (w1 = 0.8225) is on record?
The mass density was 2274.8 ± 7 kg/m3.
